# Key:
# [1] = test system: Brown tree snakes (Boiga irregularis); assay: Aerosol tests: 2 s aerosol spray onto snake's head, behavior observed for 5 min; type: in vivo; details: single reagents; for activity category from cluster analysis of behaviors (clusters I-V): Ward's method on VM, SM, LAT, TOT, % VM, % SM; for latency to response (movement latency) / movement when sprayed: 2 s aerosol; for latency to response (movement latency): post-hoc comparison with amyl acetate; for movement when sprayed: 5 min observation
# Method: Brown tree snakes (Boiga irregularis), N=400, were captured on the island of Guam along forest-jungle edge using modified minnow traps with live mice lures or by hand after being spot-lighted on fences. Snakes were individually housed in plastic containers until tested. The holding containers were housed in a military warehouse on Andersen Air Force Base, Guam under a 12:12 light:dark cycle. In general snakes were tested only once. […] Capture of snakes occurred during three separate visits to the island: 1997, 1998, 1999.
# Essential oils and individual chemicals were diluted into an inert carrier liquid (water) for the purpose of testing. An emulsifying agent (3× yucca extract) was added to the composition to stabilize the water insoluble essential oils and individual chemicals in aqueous solution. The test formulations consisted of 1% test agent (i.e., a specific essential oil or chemical), 1% 3× yucca extract and 98% water. The formulated contents were held in a reservoir in which a siphon was suspended. Pressurized air, contained in an aerosol can was passed over the orifice of the siphon to create a negative pressure which would drawn the test formulation up through the siphon and eject the formulated contents and pressurized air through a small bore nozzle to create an atomized liquid, i.e. aerosol spray.
# For testing, the holding tub was moved to the observation room and the solid lid was replaced with a lid with a screen insert. […] Snakes that became active as a result of the handling were not used in the assay. After a 15 min interval where the snake remained in a coiled position, aerosol was sprayed directly onto the snake's head for 2 s at a distance of 30 mm. Immediately after aerosol application, the observer moved to an observation distance of 3 m. We limited observations to the 5 min following aerosol applications. […] Also, in pilot tests, and with only few exceptions, the escape activity of the snake given an acute (2 s) exposure to the chemical subsided after 5 min.
# Behaviors were categorized by a trained observer as follows: VM was a violent, vigorous movement by snakes exposed to the aerosol. This movement was characterized by undirected flailing and vigorous probing of the creases of the test chamber. SM, was characterized as a directed, slow search behavior, often accompanied by tongue flicks. This behavior could also be classified as investigatory behavior. In both cases the duration (s) of these behaviors was noted. The time from the application of the stimulus to the onset of either VM or SM was defined as the latency, LAT-VM and LAT-SM, respectively. For the purposes of analysis we used the latency to the first locomotory behavior, LAT, as the quantifiable metric. TOT was defined as the total amount of time (s) that a snake was engaged in locomatory behavior. The time spent in each locomatory behavior relative to the total active time was defined as % VM and % SM, respectively.
# We used a fixed effects analysis of variance for the a priori comparison across chemicals. In the first set of analyses, essential oil was the between measures effects while behavior was the dependent variable. We used a post hoc Tukey's Honest Significance Difference test to isolate differences among test stimuli for each of the behavioral measures. Similar analyses were performed for the single reagents. We also categorized reagents into groups that yielded similar combinations of behaviors using cluster analysis (STATISTICA 1999). Amalgamation of clusters was achieved using Ward's method. This approach is distinct from most clustering algorithms in that it uses an analysis of variance approach to evaluate the distances between clusters. The distance measure used was a Chebychev distance. This approach tends to maximize the number of clusters because it is sensitive to differences among objects along single dimensions. The behavioral dimensions considered were: VM, SM, LAT, TOT, % VM, and % SM.
# brown treesnakes = details: in vivo; cited from earlier work
SMILES,activity category from cluster analysis of behaviors (clusters I-V) [1],irritant to brown treesnakes (brown treesnakes),latency to response (movement latency) [1],movement when sprayed [1]
"CC(C)C12CCC(C)(CC1)O2 [1,4-cineole]",most active,–,–,–
c1ccc2ccccc2c1 [Naphthalene],–,not an irritant,–,–
CC1=CCC2CC1C2(C)C (stereo not shown) [a-pinene],moderately active,–,–,–
CC1=CC=C(C(C)C)CC1 [a-terpinene],only weakly active,–,longer than amyl acetate,–
CCCCCOC(C)=O [amyl acetate],"highly irritating, but poor at promoting long-term locomatory behavior",–,shortest,–
CC12CCC(CC1=O)C2(C)C (stereo not shown) [camphor],did not react,–,longer than amyl acetate,did not move at all
O=CC=Cc1ccccc1 [cinnamaldehyde],most active,–,–,–
O=C(O)C=Cc1ccccc1 [cinnamic acid],did not react,–,longer than amyl acetate,did not move at all
CC(C)=CCCC(C)=CC=O [citral],most active,–,–,–
CCCC(=O)OCC [ethyl butyrate],only weakly active,–,longer than amyl acetate,–
CCOC(=O)Cc1ccccc1 [ethyl phenyl acetate],moderately active,–,–,–
C=CCc1ccc(O)c(OC)c1 [eugenol],moderately active,–,–,–
CC(C)=CCC/C(C)=C/CO [geraniol],did not react,–,longer than amyl acetate,did not move at all
CC(=O)OC/C=C(\C)CCC=C(C)C [geranyal acetate],most active,–,–,–
C=C(C)[C@H]1CC=C(C)CC1 [limonene],only weakly active,–,longer than amyl acetate,–
C=CC(C)(O)CCC=C(C)C (stereo not shown) [linalool],only weakly active,–,longer than amyl acetate,–
COc1cccc(C=O)c1 [m-anisaldehyde],most active,–,–,–
CC(C)[C@@H]1CC[C@@H](C)CC1=O [menthone],"highly irritating, but poor at promoting long-term locomatory behavior",–,–,–
COC(=O)c1ccccc1N [methyl anthranilate],"highly irritating, but poor at promoting long-term locomatory behavior",–,–,–
COC(=O)c1ccccc1O [methyl salicylate],most active,–,–,–
CC(C)=CCC/C(C)=C\CO [nerol],moderately active,–,longer than amyl acetate,–
C/C=C/c1ccc(OC)cc1 [trans-anethole],most active,–,–,–

# Reference: patent US6689397B2, “Identification of snake repellents” (priority 1999, dated 2004)
